{"source": "patent US6420361B1", "about": "“Soil pesticide” (priority 1999, dated 2002)", "origin": "cited, not measured here", "data": [{"molecule": "CN1CSC(=S)N(C)C1", "note": "[TDTT, tetrahydro-3,5-dimethyl-2H-1,3,5-thiadiazine-2-thione]", "values": [{"measurement": "Solubility and stability in commonly used agricultural solvents or carriers", "value": "not very soluble or stable"}, {"measurement": "Concentration limit in liquid formulation", "setting": "applied as a liquid formulation", "value": "less than 15 % by weight"}]}]}
